Values of other authors in patent publication US20150065545A1, “Transdermal Delivery of Anastrozole for Systemic Effect” (Professional Compounding Centers of America, priority 2013, published 2015).

How the values were obtained:
[1] = after the use of anastrozole for about 7 days
[2] = men with hormone disorders (elevated estradiol) prescribed anastrozole

For `CC(C)(C#N)c1cc(Cn2cncn2)cc(C(C)(C)C#N)c1` [anastrozole, 1,3-benzenediacetonitrile, a, a, a′, a′-tetramethyl-5-(1H-1,2,4-triazol-1-ylmethyl)], the “increase of natural testosterone levels” value [1] is given as no more than 60% and the estradiol levels [2] is given as “significant decrease”.
